Assays:
MCF7 = format: cell-based; conditions: Homo sapiens, one dose 10^-5 M, 48 h, read-out: % growth
U251 = format: cell-based; conditions: Homo sapiens, U-251, one dose 10^-5 M, 48 h
KM12 = format: cell-based; conditions: Homo sapiens, one dose 10^-5 M, 48 h
HCT-116 = format: cell-based; conditions: Homo sapiens, one dose 10^-5 M, 48 h, read-out: % growth
A498 = format: cell-based; conditions: Homo sapiens, one dose 10^-5 M, 48 h
SK-MEL-2 = format: cell-based; conditions: Homo sapiens, one dose 10^-5 M, 48 h
SN12C = format: cell-based, human; conditions: Homo sapiens, one dose 10^-5 M, 48 h
HS 578T = format: cell-based; conditions: one dose 10^-5 M, 48 h, HS 578T
NCI-H522 = format: cell-based; conditions: Homo sapiens, one dose 10^-5 M, 48 h
[1] = tested on: full NCI 60 cell lines panel
DU-145 = format: cell-based; conditions: Homo sapiens, one dose 10^-5 M, 48 h
IGROV1 = format: cell-based; conditions: Homo sapiens, IGROV-1, one dose 10^-5 M, 48 h, read-out: % growth
NCI-H460 = format: cell-based; conditions: Homo sapiens, one dose 10^-5 M, 48 h, read-out: % growth
OVCAR-5 = format: cell-based; conditions: Homo sapiens, one dose 10^-5 M, 48 h
MDA-MB-435 = format: cell-based; conditions: Homo sapiens, one dose 10^-5 M, 48 h, read-out: % growth
HCC-2998 = format: cell-based; conditions: Homo sapiens, one dose 10^-5 M, 48 h
K-562 = format: cell-based; conditions: Homo sapiens, K562, one dose 10^-5 M, 48 h
A549/ATCC = format: cell-based; conditions: Homo sapiens, one dose 10^-5 M, 48 h
SK-MEL-5 = format: cell-based; conditions: Homo sapiens, one dose 10^-5 M, 48 h, read-out: % growth
SF-268 = format: cell-based; conditions: Homo sapiens, one dose 10^-5 M, 48 h, read-out: % growth
MDA-MB-468 = format: cell-based; conditions: Homo sapiens, one dose 10^-5 M, 48 h
EKVX = format: cell-based; conditions: Homo sapiens, one dose 10^-5 M, 48 h
HL-60(TB) = format: cell-based; conditions: Homo sapiens, one dose 10^-5 M, 48 h
HT29 = format: cell-based; conditions: Homo sapiens, HT-29, one dose 10^-5 M, 48 h
OVCAR-3 = format: cell-based; conditions: Homo sapiens, one dose 10^-5 M, 48 h
T-47D = format: cell-based; conditions: Homo sapiens, T47D, one dose 10^-5 M, 48 h, read-out: % growth
MDA-MB-231/ATCC = format: cell-based; conditions: Homo sapiens, one dose 10^-5 M, 48 h
UACC-257 = format: cell-based; conditions: Homo sapiens, one dose 10^-5 M, 48 h
CAKI-1 = format: cell-based; conditions: Homo sapiens, CAKI-1, 48 h, one dose 10^-5 M, 48 h
MOLT-4 = format: cell-based; conditions: Homo sapiens, one dose 10^-5 M, 48 h, read-out: % growth
HOP-62 = format: cell-based; conditions: Homo sapiens, one dose 10^-5 M, 48 h
MALME-3M = format: cell-based; conditions: Homo sapiens, one dose 10^-5 M, 48 h
SK-OV-3 = format: cell-based; conditions: Homo sapiens, one dose 10^-5 M, 48 h
CCRF-CEM = format: cell-based; conditions: Homo sapiens, one dose 10^-5 M, 48 h
UO-31 = format: cell-based; conditions: Homo sapiens, UO-31, 48 h, one dose 10^-5 M, 48 h
RXF 393 = format: cell-based; conditions: Homo sapiens, RXF 393, 48 h, one dose 10^-5 M, 48 h, read-out: % growth
OVCAR-4 = format: cell-based; conditions: Homo sapiens, one dose 10^-5 M, 48 h
M14 = format: cell-based; conditions: Homo sapiens, one dose 10^-5 M, 48 h
UACC-62 = format: cell-based; conditions: Homo sapiens, one dose 10^-5 M, 48 h
786-0 = format: cell-based; conditions: Homo sapiens, one dose 10^-5 M, 48 h
LOX IMVI = format: cell-based; conditions: Homo sapiens, one dose 10^-5 M, 48 h, read-out: % growth
SR = format: cell-based; conditions: Homo sapiens, one dose 10^-5 M, 48 h
SF-539 = format: cell-based; conditions: Homo sapiens, one dose 10^-5 M, 48 h
NCI-H23 = format: cell-based; conditions: Homo sapiens, one dose 10^-5 M, 48 h, read-out: % growth
SNB-75 = format: cell-based; conditions: one dose 10^-5 M, 48 h
ACHN = format: cell-based; conditions: Homo sapiens, one dose 10^-5 M, 48 h
SF-295 = format: cell-based; conditions: Homo sapiens, one dose 10^-5 M, 48 h
PC-3 = format: cell-based; conditions: Homo sapiens, one dose 10^-5 M, 48 h
RPMI-8226 = format: cell-based; conditions: Homo sapiens, one dose 10^-5 M, 48 h
HCT-15 = format: cell-based; conditions: Homo sapiens, one dose 10^-5 M, 48 h, read-out: % growth
OVCAR-8 = format: cell-based; conditions: Homo sapiens, one dose 10^-5 M, 48 h
SNB-19 = format: cell-based; conditions: Homo sapiens, one dose 10^-5 M, 48 h, read-out: % growth
HOP-92 = format: cell-based; conditions: one dose 10^-5 M, 48 h
SW-620 = format: cell-based; conditions: Homo sapiens, one dose 10^-5 M, 48 h
NCI-H226 = format: cell-based; conditions: one dose 10^-5 M, 48 h
TK-10 = format: cell-based; conditions: Homo sapiens, one dose 10^-5 M, 48 h
SK-MEL-28 = format: cell-based; conditions: Homo sapiens, one dose 10^-5 M, 48 h

N=C(NN=Cc1ccccc1)c1c(N)nc(S)nc1-c1ccc(Cl)cc1 [Compound 4g, 4-amino-6–(4-chlorophenyl)-2-mercapto-N'-[phenylmethylene]pyrimidine-5-carboximido hydrazide]
activity at 10 µM (MCF7): 42.2% | % growth at 10 µM (U251): 13.2% | % growth at 10 µM (KM12): 62.3% | activity at 10 µM (HCT-116): 30.6% | % growth at 10 µM (A498): 105% | % growth at 10 µM (SK-MEL-2): 92.7% | % growth at 10 µM (SN12C): 73.9% | activity at 10 µM (HS 578T; Homo sapiens, read-out: % growth): -6.98% | % growth (HS 578T): -6.98% | % growth at 10 µM (NCI-H522): 56.4% | activity at 10 µM ([1]; Homo sapiens, 60 cell, 48 h, read-out: Mean % growth): 50.8% | % growth values, cell lines with lethal effect ([1]; one dose, range over those cell lines): −0.44%to-34.30 | % growth at 10 µM (DU-145): 48.7% | activity at 10 µM (IGROV1): 62.6% | activity at 10 µM (NCI-H460): 16.5% | percent cell growth at 10 µM (OVCAR-5): 80.1% | activity at 10 µM (MDA-MB-435): 77.3% | % growth at 10 µM (HCC-2998): 93.1% | % growth at 10 µM (K-562): 52.4% | % growth at 10 µM (A549/ATCC): 31.6% | activity at 10 µM (SK-MEL-5): 84.9% | activity at 10 µM (SF-268): 49.3% | percent cell growth at 10 µM (MDA-MB-468): 49.7% | % cell growth at 10 µM (EKVX): 52.9% | % growth at 10 µM (HL-60(TB)): 97% | % growth at 10 µM (HT29): 78.5% | % growth at 10 µM (OVCAR-3): 77.7% | activity at 10 µM (T-47D): 49.4% | % growth at 10 µM (MDA-MB-231/ATCC): 1.22% | percent cell growth at 10 µM (UACC-257): 92.8% | % growth at 10 µM (CAKI-1): 31.2% | activity at 10 µM (MOLT-4): 58.5% | % growth at 10 µM (HOP-62): 30.2% | % growth at 10 µM (MALME-3M): 52.1% | % growth at 10 µM (SK-OV-3): 81% | % cell growth at 10 µM (CCRF-CEM): 65% | % cell growth at 10 µM (UO-31): 29.4% | activity at 10 µM (RXF 393): 8.96% | % growth at 10 µM (OVCAR-4): 37.5% | % growth at 10 µM (M14): 70.6% | % growth at 10 µM (UACC-62): 78.1% | % growth at 10 µM (786-0): 41.7% | activity at 10 µM (LOX IMVI): 22.6% | percent cell growth at 10 µM (SR): 46.4% | % growth at 10 µM (SF-539): 11.4% | activity at 10 µM (NCI-H23): 64.3% | % growth at 10 µM (SNB-75; Homo sapiens): -34.3% | % growth (SNB-75): -34.30% | % growth at 10 µM (ACHN): 23.3% | % cell growth at 10 µM (SF-295): 35.6% | percent cell growth at 10 µM (PC-3): 52.6% | % growth at 10 µM (RPMI-8226): 51.4% | activity at 10 µM (HCT-15): 53.1% | % growth of cells at 10 µM (OVCAR-8): 20.4% | activity at 10 µM (SNB-19): 59.8% | % growth at 10 µM (HOP-92; Homo sapiens): -0.44% | % growth (HOP-92): -0.44% | % growth at 10 µM (SW-620): 76.3% | % growth at 10 µM (NCI-H226; Homo sapiens): -0.68% | % growth (NCI-H226): -0.68% | % cell growth at 10 µM (TK-10): 93.9% | % cell growth at 10 µM (SK-MEL-28): 88.5%
